Experimental findings from ChEMBL document CHEMBL4190272, “Norditerpenoids and Dinorditerpenoids from the Seeds of Podocarpus nagi as Cytotoxic Agents and Autophagy Inducers” (J Nat Prod, 2017) are described below.

In experiment [1] the test system is A2780. Conditions: Homo sapiens.
Description: (§1) Cytotoxicity against human A2780 cells after 48 hrs by MTT assay
Experiment [2] deals with HEY. Put plainly: Cytotoxicity against human HEY cells after 48 hrs by MTT assay. It is filed as functional, cell-based.
Experiment [3] deals with A2780. Put plainly: cells. The conditions noted are these: Homo sapiens, A2780, 48 h.
Description: as §1
Experiment [4] deals with A2780. Put plainly: Cytotoxicity against human A2780 cells up to 10 uM after 48 hrs by MTT assay. In kind it is functional, cell-based.
Experiment [5] concerns HEY. Put plainly: Cytotoxicity against human HEY cells up to 10 uM after 48 hrs by MTT assay. In kind it is functional, cell-based. For orientation: Tetrazolium dyes change colour on reduction, which living cells bring about.
Experiment [6] relates to A2780. Put plainly: Induction of autophagy in human A2780 cells assessed as increase in LC3-2 expression up to 10 uM after 24 hrs by Western blot analysis. It is filed as functional, cell-based. A general note: Immunoblotting shows a protein as a band on a membrane.
For experiment [7], the system named is HEY. Description: Induction of autophagy in human HEY cells assessed as increase in LC3-2 expression by Western blot analysis. It is filed as functional, cell-based.
Experiment [8] concerns the target T1, c-Jun N-terminal kinase, JNK (Homo sapiens) (UniProt P45983+P53779+P45984). Description: Activation of JNK phosphorylation in human A2780 cells up to 10 uM after 24 hrs by Western blot analysis. In kind it is cell-based.
The target in experiment [9] is T1, c-Jun N-terminal kinase, JNK (Homo sapiens). Description: Activation of JNK in human A2780 cells assessed as increase in phosphorylated c-jun expression up to 10 uM after 24 hrs by Western blot analysis. In kind it is cell-based.
Experiment [10] has the same target. Put plainly: Activation of JNK in human A2780 cells assessed as increase in phosphorylated c-jun expression up to 10 uM after 24 hrs in presence of JNK/c-Jun pathway inhibitor SP600125 by Western blot analysis. In kind it is cell-based.
Experiment [11] deals with A2780. Description: Induction of autophagy in human A2780 cells expressing mRFP-GFP-LC3 plasmid assessed as increase in LC3 punctum formation at 10 uM after 24 hrs by confocal microscopic analysis. It is filed as functional, cell-based.
For experiment [12], the target named is T1, c-Jun N-terminal kinase, JNK (Homo sapiens). Put plainly: Activation of JNK in human A2780 cells assessed as increase in c-jun expression up to 10 uM after 24 hrs by Western blot analysis. It is filed as cell-based.
Experiment [13] deals with HEY. Put plainly: Induction of autophagy in human HEY cells assessed as increase in LC3-2 expression up to 10 uM after 24 hrs by Western blot analysis. In kind it is functional, cell-based.
Experiment [14] concerns A2780. Description: Induction of autophagy in human A2780 cells assessed as increase in LC3-2 expression by Western blot analysis. It is filed as functional, cell-based.
For experiment [15], the target named is T1, c-Jun N-terminal kinase, JNK (Homo sapiens). Description: Activation of JNK phosphorylation in human A2780 cells up to 10 uM after 24 hrs in presence of JNK/c-Jun pathway inhibitor SP600125 by Western blot analysis. It is filed as cell-based.
The test system of experiment [16] is A2780. Description: Induction of autophagy in human A2780 cells assessed as increase in LC3-2 expression in presence of JNK/c-Jun pathway inhibitor SP600125 by Western blot analysis. In kind it is functional, cell-based.

Calls of active or inactive are those of the source. The calls are words filed in the database; no cut-off is given here.

On to `CC(C)c1oc(=O)cc2c1[C@@H](O)[C@H]1OC(=O)[C@@]3(C)[C@@H](O)[C@H]4O[C@H]4[C@@]2(C)[C@@H]13`, for which the outcome in the experiment with A2780 [1] and in the experiment with HEY [2] was Active.
Usually IC50 stands for the concentration at which inhibition is half-maximal. On to `CC(=O)O[C@H]1C(=O)[C@@]2(C)[C@H]([C@H](OC(=O)c3ccccc3)[C@]3(O)C[C@H](OC(=O)[C@H](O)[C@@H](NC(=O)c4ccccc4)c4ccccc4)C(C)=C1C3(C)C)[C@]1(OC(C)=O)CO[C@@H]1C[C@@H]2O` [PACLITAXEL], for which the IC50 is 104 nM with HEY [2] and 164 nM in the experiment with A2780 [3].
For the compound `CC(C)c1oc(=O)cc2c1[C@@H](O)[C@H]1OC(=O)[C@@]3(C)C[C@@H](O)C[C@@]2(C)[C@@H]13`, the result in the experiment with A2780 [1] and with HEY [2] was Active.
As to `CC(C)c1oc(=O)cc2c1[C@@H](O)[C@H]1OC(=O)[C@@]3(C)C[C@@H](O)[C@@H](O)[C@@]2(C)[C@@H]13`, the result in the experiment on A2780 [1] and in the experiment on HEY [2] was Active.
For the compound `CC(C)c1oc(=O)cc2c1[C@@H](O)[C@H]1OC(=O)[C@@]3(C)CC[C@@H](O)[C@@]2(C)[C@@H]13`, the outcome in the experiment with A2780 [1] and in the experiment on HEY [2] was Active.
Regarding `CCc1oc(=O)cc2c1[C@@H](O)[C@H]1OC(=O)[C@@]3(C)[C@@H](O)[C@H]4O[C@H]4[C@@]2(C)[C@@H]13`, the result in the experiment with A2780 [4] and with HEY [5] was inactive.
Take `CCc1oc(=O)cc2c1C[C@H]1OC(=O)[C@@]3(C)[C@@H](O)C[C@@H](O)[C@@]2(C)[C@@H]13`: the outcome with A2780 [4] and in the experiment on HEY [5] was inactive.
With `CCc1oc(=O)cc2c1C[C@H]1OC(=O)[C@@]3(C)CC[C@@H](O)[C@@]2(C)[C@@H]13`, the IC50 was found to be 6400 nM with HEY [2] and 3800 nM in the experiment with A2780 [3].
As for `CC(O)c1oc(=O)cc2c1C[C@H]1OC(=O)[C@@]3(C)CC[C@@H](O)[C@@]2(C)[C@@H]13` (some centres not stated), the outcome with A2780 [4] and with HEY [5] was inactive.
`CC(O)c1oc(=O)cc2c1C[C@H]1OC(=O)[C@@]3(C)[C@@H](O)[C@@H](O)[C@H](Cl)[C@@]2(C)[C@@H]13` (some centres not stated): the outcome with A2780 [4] and with HEY [5] was inactive.
For `CCc1oc(=O)cc2c1C[C@H]1OC(=O)[C@@]3(C)C[C@@H](O)[C@@H](O)[C@@]2(C)[C@@H]13`, the concentration for half-maximal inhibition (IC50) in the experiment with HEY [2] and in the experiment with A2780 [3] was less than 2500 nM each time. Also, the result (in the experiment on A2780 [6]; in the experiment on HEY [7]; in experiment [8]; in experiment [9]; with A2780 [11]; in experiment [12]) was Active. Besides, the result with HEY [13] and with A2780 [14] was Active. Further, the outcome (in experiment [10]; in [15]; in the experiment on A2780 [16]) was inactive.
As for `CCc1oc(=O)cc2c1C[C@H]1OC(=O)[C@@]3(C)[C@H](O)[C@H]4O[C@H]4[C@@]2(C)[C@@H]13`, the result with A2780 [1], in the experiment on HEY [2], in the experiment on HEY [7] and in the experiment on A2780 [14] was Active.
Consider `CCc1oc(=O)cc2c1C[C@H]1OC(=O)[C@@]3(C)[C@@H](O)[C@@H](O)[C@H](O)[C@@]2(C)[C@@H]13`, for which the outcome in the experiment on A2780 [4] and in the experiment on HEY [5] was inactive.
Turning to `CCc1oc(=O)cc2c1C[C@H]1OC(=O)[C@@]3(C)[C@@H](O)[C@H]4O[C@H]4[C@@]2(C)[C@@H]13`, the outcome in the experiment with A2780 [1] and in the experiment on HEY [2] was Active.
With `CC(C)c1oc(=O)cc2c1[C@@H](O)[C@H]1OC(=O)[C@@]3(C)CC(=O)[C@@H](O)[C@@]2(C)[C@@H]13`, the outcome with A2780 [4] and with HEY [5] was inactive.
For `CC(C)[C@H]1OC(=O)C=C2[C@@]13O[C@@H]3[C@H]1OC(=O)[C@@]3(C)CCC[C@@]2(C)[C@@H]13`, the outcome with A2780 [1] and with HEY [2] was Active.
In the case of `CC(O)c1oc(=O)cc2c1C[C@H]1OC(=O)[C@@]3(C)[C@H](O)[C@H]4O[C@H]4[C@@]2(C)[C@@H]13` (some centres not stated), the result in the experiment on A2780 [4] and in the experiment with HEY [5] was inactive.
